Experimental data: US20070275877A1, “Methods for Treating or Ameliorating Ghrelin-Associated Diseases and Disorders” (AMYLIN PHARMACEUTICALS, INC., priority 2003, published 2007)
No end group written: not given here.

Columns and labels:
ghrelin levels = assay: Crossover study of pramlintide in humans: ghrelin levels (Example 6); format: in vivo, human; conditions: single SC dose of pramlintide 30 μg, n=15, FIG. 6
Procedure: FIG. 6 depicts a graph of the effect of an amylin analog on ghrelin levels in humans.
(§1) Ghrelin levels were measured in a single-center, randomized, double-blind, placebo-controlled, two-period, crossover study was designed to examine the acute effects of pramlintide, an amylin analog, in humans. The study consisted of two treatment periods (Period 1/Visit 2 and Period 2/Visit 3) with at least 72 h between each treatment period. After successful completion of all Screening procedures (including informed consent), subjects (n=15) were randomly assigned to one of two treatment sequences (pramlintide: placebo or placebo: pramlintide). Subjects were instructed to fast from 2200 h on the evening before both treatment periods until the start of the test (the next morning).
On the mornings of Period 1 and Period 2, an intravenous cannula was placed in an antecubital vein for blood sampling (t=−1 h). Vital signs and weight were measured at this time. During each treatment period, subjects received study medication (pramlintide or placebo) immediately followed by a standardized, liquid preload meal, which was to be consumed within 3 min. Subjects received a single SC dose of pramlintide 30 μg or placebo. […] The buffet meal included a selection of carbohydrate-rich foods in quantities in excess of what subjects were expected to eat. […]

[1] = Crossover study of pramlintide in humans: ad libitum buffet meal intake (Example 6); format: in vivo, human; conditions: single SC dose of pramlintide 30 μg
Procedure: as §1
On the mornings of Period 1 and Period 2, an intravenous cannula was placed in an antecubital vein for blood sampling (t=−1 h). Vital signs and weight were measured at this time. During each treatment period, subjects received study medication (pramlintide or placebo) immediately followed by a standardized, liquid preload meal, which was to be consumed within 3 min. Subjects received a single SC dose of pramlintide 30 μg or placebo. One hour later (t=1 h), subjects consumed an ad libitum buffet meal, which was offered for 45 min. The buffet meal included a selection of carbohydrate-rich foods in quantities in excess of what subjects were expected to eat. Venous blood samples were collected over a 5.5-h period (t=−0.5 h to 5 h) for the measurement of postprandial metabolic and hormonal responses. Procedures for Period 2 were exactly as those described for Period 1, only the alternate treatment was given.

active ghrelin [2] = assay: Amylin receptor antagonist s.c., plasma ghrelin in non-fasted rats given pentagastrin (Example 4, FIG. 4A); format: in vivo; conditions: AC187 3 mg/rat s.c. at -5 min, pentagastrin 125 μg/kg s.c. at 0 min
Procedure: (§2) FIGS. 4A and 4B depict graphs of the effects of an amylin receptor antagonist on ghrelin levels in an animal model.
(§3) The following methods apply to Examples 1-4 as indicated. Male Harlan Sprague Dawley® (HSD) rats were housed at 22.8±0.8° C. in a 12:12 hour light:dark cycle. All experiments were performed in the light cycle. Animals were fasted for approximately 20 hours before experimentation (examples 1, 2 and 3) or fed ad libidum (Example 4). All animals were given free access to water until the start of the experiment. The animals' tails were anesthetized with 20% benzocaine (Hurricaine, Beutlich Pharmaceutical, Waukegan, Ill.), and blood samples were collected from the tail vein. Total and active ghrelin concentrations were measured using Linco RIA kits GHRA-89HK and GHRA-88HK, respectively.
These experiments were conducted to determine whether the amylin receptor antagonist AC187 blocked an effect of endogenous amylin on plasma ghrelin levels in non-fasted rats. Baseline blood samples for ghrelin to be assayed were taken at t=−10 min. AC187 (lot #AR741-72, Amylin Pharmaceuticals), at a dose of 3 mg/rat in 300 μl of saline, or saline vehicle alone, was given by subcutaneous injection (n=6, 8 respectively) at t=−5 min. Animals additionally received a subcutaneous injection of pentagastrin (Sigma, Lot#050K1525) in the amount of 125 μg/kg body mass at time=0 min. […]

active ghrelin [3] = assay: Amylin receptor antagonist i.v., plasma ghrelin in fed rats (Example 4, FIG. 4B); format: in vivo; conditions: AC187 3 mg/rat i.v.; five minutes after administration; fed animals; saline controls 1.4±6.4% decrease, P<0.03
Procedure: as §2, §3
In a second, related experiment, baseline blood samples for ghrelin to be assayed were taken at t=0 minutes. AC187 (lot#AR2237-18B, Amylin Pharmaceuticals, Inc.), at a dose of 3 mg/rat in 300 μl of saline or saline vehicle alone, was given by intravenous injection in the tail vein at t=0. Plasma samples were collected at time 0, 5, and 15 minutes. Five minutes after administration of AC187 in fed animals, active ghrelin concentrations increased by 16.3±4.0%, as compared to a 1.4±6.4% decrease in saline controls (P<0.03), see FIG. 4B.

[4] = treated test animals; e.g., provoking marked hyperlactemia followed by hyperglycemia; cited from earlier work
[5] = cited from earlier work
[6] = tested on: active (acylated) ghrelin; assay: Effect of rat amylin on ghrelin levels in pentagastrin-treated fasted rats (Example 1); format: in vivo; conditions: 10 μg rat amylin s.c. 20 min after 125 μg/kg pentagastrin s.c.
Procedure: FIG. 1 depicts a graph of the effect of exogenously administered rat amylin on endogenous ghrelin levels in an animal model. 125 μg pentagastrin (PG) was administered at t=0 and 10 μg amylin was administered at t=20 (dotted lines).
as §3
HSD rats were subjected to periodic blood sampling from the topically anesthetized tail and ghrelin levels were assayed. At t=0, rats (n=6) were injected s.c. with 125 μg/kg pentagastrin (Sigma) to stimulate gastric acid secretion (PG=0 min in FIG. 1), and 20 min later were injected subcutaneously (s.c.) with 10 μg rat amylin. The blood samples were analyzed for total and active (acylated) ghrelin (Linco).

total plasma ghrelin [7] = assay: Effect of rat amylin on ghrelin levels with and without pentagastrin in fasted rats (Example 2); format: in vivo
Procedure: FIGS. 2A and 2B depict graphs of the effect of rat amylin on ghrelin levels in an animal model in the presence and absence of pentagastrin.
as §3
These experiments were conducted to examine whether exogenous amylin inhibits ghrelin secretion independent of pentagastrin stimulation. Fasted rats were given either a subcutaneous injection of saline or of 30 μg/kg rat amylin (FIG. 2A) or a subcutaneous injection of either saline or 125 μg/kg pentagastrin (Sigma, Lot#050K1525) (FIG. 2B) at time=0 min. […]

total plasma ghrelin [8] = assay: Dose-response effects of amylin on ghrelin levels in fasted rats (Example 3); format: in vivo, rat
Procedure: FIGS. 3A and 3B depict graphs of dose-response effects of rat amylin on ghrelin levels in an animal model.
as §3
These experiments were conducted to identify dose-response effects of amylin on ghrelin levels in fasted rats. Rat amylin (lot #AR2081-42A, Amylin Pharmaceuticals) in 100 μl saline was given by subcutaneous injections at doses: 0, 1, 10, 30 and 100 μg/kg (n=5, 4, 5, 5, 4 respectively) at time=0 min. Blood plasma samples were collected at time=0, 10, 20, 30, 60, 90 and 120 min after amylin injection. […] Pairwise statistical analyses were performed using Student's t-test (Instat v2.0, GraphPad Software Inc, San Diego). Results are reported as mean±standard error of the mean, and P<0.05 is used as the level of significance.

active ghrelin [9] = assay: Amylin effect on ghrelin in area postrema-lesioned and sham operated rats (Example 5); format: in vivo, rat
Procedure: FIG. 5 depicts a graph of the effect of the area postrema on amylin's effect on ghrelin secretion.
In this experiment, fasted, Sprague-Dawley® rats with localized lesions of the area postrema (AP) made by vacuum aspiration 3 weeks before the experiments and sham operated rats (sham) were injected s.c. with amylin (30 μg/kg) or saline (n=4, 4 respectively). At t=0, 10, 20, 30, 60, 90 and 120 minutes after the s.c. injection, total ghrelin concentrations were measured and reports as % of the baseline.
Twenty minutes after a 30 μg/kg subcutaneous amylin injection in Sham rats, active ghrelin concentration decreased by 31.3±3.3%, while active ghrelin concentrations in saline controls increased by 23.5±22.1% (P<0.05).

Compound: CC[C@H](C)[C@H](NC(=O)[C@@H]1CCCN1C(=O)CNC(=O)[C@H](Cc1ccccc1)NC(=O)[C@H](CC(N)=O)NC(=O)[C@H](CC(N)=O)NC(=O)[C@H](CO)NC(=O)[C@H](CO)NC(=O)[C@H](Cc1c[nH]cn1)NC(=O)[C@@H](NC(=O)[C@H](CC(C)C)NC(=O)[C@H](Cc1ccccc1)NC(=O)[C@H](CC(N)=O)NC(=O)[C@H](C)NC(=O)[C@H](CC(C)C)NC(=O)[C@H](CCCNC(=N)N)NC(=O)[C@H](CCC(N)=O)NC(=O)[C@@H](NC(=O)[C@H](C)NC(=O)[C@@H]1CSSC[C@H](NC(=O)[C@@H](N)CCCCN)C(=O)N[C@@H](CC(N)=O)C(=O)N[C@@H]([C@@H](C)O)C(=O)N[C@@H](C)C(=O)N[C@@H]([C@@H](C)O)C(=O)N1)[C@@H](C)O)C(C)C)C(=O)N[C@@H](CC(C)C)C(=O)N1CCC[C@H]1C(=O)N1CCC[C@H]1C(=O)N[C@H](C(=O)N[C@@H](CC(N)=O)C(=O)N[C@H](C(=O)NCC(=O)N[C@@H](CO)C(=O)N[C@@H](CC(N)=O)C(=O)N[C@H](C(=O)N[C@@H](Cc1ccc(O)cc1)C(N)=O)[C@@H](C)O)C(C)C)[C@@H](C)O [pramlintide, ^25,28,29Pro-h-amylin]
- ghrelin levels following an ad libitum buffet meal compared to placebo (ghrelin levels): further reduced
- duration of the meal time compared to placebo [1]: reduced
- fat, carbohydrate, and protein intake compared to placebo [1]: proportionate reductions
- total caloric intake of the buffet meal compared to placebo [1]: reduced

Compound: Ac ^30Asn, ^32Tyr-sCT[8-32] [AC187]
- active ghrelin concentrations compared to saline injected controls (active ghrelin [2]): higher
- increase of active ghrelin concentrations (active ghrelin [3]): 16.3±4.0%

Compound: ^18Arg^25,28Pro-h-amylin (KCNTATCATQRLANFLVRSSNNFGPILPSTNVGSNTY)
- amylin activity in vivo [4]: show amylin activity in vivo
- solubility characteristics compared to human amylin [5]: more desirable

Compound: ^25Pro^26Val^28,29 Pro-h-amylin (KCNTATCATQRLANFLVHSSNNFGPVLPPTNVGSNTY)
- solubility characteristics compared to human amylin [5]: more desirable

Compound: ^28Pro-h-amylin (KCNTATCATQRLANFLVHSSNNFGAILPSTNVGSNTY)
- amylin activity in vivo [4]: show amylin activity in vivo

Compound: des-^1Lys-h-amylin (CNTATCATQRLANFLVHSSNNFGAILSSTNVGSNTY; ends and bridges not checked; cysteine pairing not given here; UniProt P10997 35-70, looked up, fragment)
- amylin activity in vivo [4]: show amylin activity in vivo

Compound: des-^1Lys^18Arg^25,28Pro-h-amylin
- amylin activity in vivo [4]: show amylin activity in vivo

Compound: rat amylin (KCNTATCATQRLANFLVRSSNNLGPVLPPTNVGSNTY; not fully specified; ends and bridges not checked; UniProt P12969 38-74, looked up) [rat amylin peptide hormone (AC0128, Amylin Pharmaceuticals)]
- time within which active ghrelin was reduced by 50% [6]: ≤ 1 h
- reduction of active ghrelin ([6]; FIG. 1): 50%
- plasma ghrelin compared to the control, amylin alone (total plasma ghrelin [7]; 30 μg/kg rat amylin s.c. without pentagastrin): reduced
- total plasma ghrelin compared to the saline control (total plasma ghrelin [7]; 30 μg/kg rat amylin s.c., FIGS. 2A and 2B): reduction in total plasma ghrelin
- inhibition of ghrelin at lowest dose (total plasma ghrelin [8]; amylin dose of 1 μg/kg s.c.): trend to inhibit ghrelin
- reduction of ghrelin, significance (total plasma ghrelin [8]; amylin doses of 10 μg/kg and above s.c., P<0.05 level): statistically significant
- total plasma ghrelin concentrations, dose-response (total plasma ghrelin [8]; rat amylin s.c. 0, 1, 10, 30 and 100 μg/kg, fasted rats, FIG. 3A): dose-dependent reduction
- time of ghrelin concentration nadirs after amylin injection (total plasma ghrelin [8]; rat amylin s.c. 1-100 μg/kg, fasted rats): 60 to 90 min
- difference in ghrelin concentration, amylin versus saline (active ghrelin [9]; AP-lesioned rats, 30 μg/kg s.c. amylin, P=0.24): no significant difference
- increase of ghrelin concentration (active ghrelin [9]; AP-lesioned rats, 30 μg/kg s.c. amylin, saline +49.6±21.0%, P=0.24): 13.7±17.6%
- decrease of active ghrelin concentration (active ghrelin [9]; Sham rats, twenty minutes after 30 μg/kg s.c. amylin, saline controls increased by 23.5±22.1%, P<0.05): 31.3±3.3%
